Test results taken from paper PMC3108484 (Frontiers in Pharmacology, 2011).

Experiments:
[1] = test system: canine antrum, duodenum, and jejunum; experiment: Dog gastrointestinal contractility; format: in vivo; conditions: oral, conscious fasted dogs
[2] = target: Rat α7 nAChR (α-BGTX-sensitive) (Rattus norvegicus, UniProt Q05941); experiment: biochemical; format: binding
[3] = target: Rat Ca2+ channel (N) (Rattus norvegicus, UniProt Q02294); experiment: biochemical; format: binding
[4] = target: K+V channel; format: binding; conditions: [125I]-α-dendrotoxin 0.01 nM
[5] = target: Human D5 (Homo sapiens, UniProt P21918); experiment: Radioligand binding: Human D5
[6] = target: Human M3 (Homo sapiens, UniProt P20309); experiment: Radioligand binding: Human M3
[7] = target: Human M5 (Homo sapiens, UniProt P08912); experiment: Radioligand binding: Human M5
[8] = target: Human B2 (Homo sapiens, UniProt P30411); experiment: Radioligand binding: Human B2
[9] = target: Rat CRF1 (Rattus norvegicus, UniProt P35353); experiment: Radioligand binding: Rat CRF1
[10] = target: Human Y2 (Homo sapiens, UniProt P49146); experiment: Radioligand binding: Human Y2
[11] = target: Human A2A (Homo sapiens, UniProt P29274); experiment: Radioligand binding: Human A2A
[12] = target: Human ETA (Homo sapiens, UniProt P25101); experiment: Radioligand binding: Human ETA
[13] = target: Human CB1 (Homo sapiens, UniProt P21554); experiment: Radioligand binding: Human CB1
[14] = target: Human 5-HT6 (Homo sapiens, UniProt P50406); experiment: Radioligand binding: Human 5-HT6
[15] = target: Human 5-HT7 (Homo sapiens, UniProt P34969); experiment: Radioligand binding: Human 5-HT7
[16] = target: Human 5-HT3a (Homo sapiens, UniProt P46098); experiment: Radioligand binding: Human 5-HT3a
[17] = target: Guinea pig H1 (Cavia porcellus, UniProt P31389); experiment: Radioligand binding: Guinea pig H1
[18] = target: K+ATP channel (Rattus norvegicus, UniProt Q09429); experiment: Radioligand binding: K+ATP channel; conditions: read-out: % Inhibition of specific binding (1 μM)
[19] = target: Rat α4β2 nAChR (α-BGTX-insensitive) (Rattus norvegicus, UniProt P09483+P12390); experiment: Radioligand binding: Rat α4β2 nAChR
[20] = target: Human CCK2 (CCKB) (Homo sapiens, UniProt P32239); experiment: Radioligand binding: Human CCK2
[21] = target: Human VPAC1 (VIP1) (Homo sapiens, UniProt P32241); experiment: Radioligand binding: Human VPAC1
[22] = test system: Rat adenylyl cyclase; experiment: Enzyme inhibition: Rat adenylyl cyclase; conditions: ATP 500 μM, TD-8954 1 μM
[23] = target: Rat σ (non-selective); experiment: Radioligand binding: Rat σ; conditions: [3H]-DTG 8 nM
[24] = target: Rat α1 (non-selective); experiment: Radioligand binding: Rat α1; conditions: [3H]-prazosin 0.25 nM
[25] = target: Rat α2 (non-selective); experiment: Radioligand binding: Rat α2; conditions: [3H]-RX 821002 0.5 nM
[26] = target: Rat NT (non-selective); experiment: Radioligand binding: Rat NT; conditions: [125I]-Tyr3-neurotensin 0.05 nM
[27] = target: Human μ (Homo sapiens, UniProt P35372); experiment: Radioligand binding: Human μ opiate receptor
[28] = target: Mouse sst (non-selective); experiment: Radioligand binding: Mouse sst; conditions: [125I]-Tyr11-somatostatin 0.05 nM
[29] = target: Rat galanin (non-selective); experiment: Radioligand binding: Rat galanin; conditions: [125I]-galanin 0.05 nM
[30] = test system: rat Nav1.2; experiment: Whole cell voltage-clamp, neuronal sodium current; conditions: 3 μM for 3 min, n = 3 cells
[31] = target: Guinea pig κ kappa (Cavia porcellus, UniProt P41144); experiment: Radioligand binding: Guinea pig κ opiate receptor
[32] = target: Rat Ca2+ channel (L, DHP site); experiment: Radioligand binding: Rat Ca2+ channel; conditions: [3H]-(+)PN 200-110 0.04 nM
[33] = target: Human norepinephrine transporter (Homo sapiens, UniProt P23975); experiment: Radioligand binding: Human norepinephrine transporter
[34] = read-out: % Inhibition of specific binding (1 μM)

Chain of Human VPAC1 (VIP1) (P32241 31-457): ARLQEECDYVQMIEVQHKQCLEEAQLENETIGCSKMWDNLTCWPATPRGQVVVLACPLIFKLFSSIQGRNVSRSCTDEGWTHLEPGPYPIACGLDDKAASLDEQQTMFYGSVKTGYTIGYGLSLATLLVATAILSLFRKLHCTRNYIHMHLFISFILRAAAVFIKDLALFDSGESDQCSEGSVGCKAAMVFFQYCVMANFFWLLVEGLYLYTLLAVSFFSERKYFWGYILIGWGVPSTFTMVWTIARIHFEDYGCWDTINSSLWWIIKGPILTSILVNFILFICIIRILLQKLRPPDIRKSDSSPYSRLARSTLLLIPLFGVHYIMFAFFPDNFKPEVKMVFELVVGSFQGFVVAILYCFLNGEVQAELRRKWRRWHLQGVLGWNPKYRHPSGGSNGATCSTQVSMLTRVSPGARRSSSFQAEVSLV
Chain of Human CCK2 (CCKB) (P32239 whole entry): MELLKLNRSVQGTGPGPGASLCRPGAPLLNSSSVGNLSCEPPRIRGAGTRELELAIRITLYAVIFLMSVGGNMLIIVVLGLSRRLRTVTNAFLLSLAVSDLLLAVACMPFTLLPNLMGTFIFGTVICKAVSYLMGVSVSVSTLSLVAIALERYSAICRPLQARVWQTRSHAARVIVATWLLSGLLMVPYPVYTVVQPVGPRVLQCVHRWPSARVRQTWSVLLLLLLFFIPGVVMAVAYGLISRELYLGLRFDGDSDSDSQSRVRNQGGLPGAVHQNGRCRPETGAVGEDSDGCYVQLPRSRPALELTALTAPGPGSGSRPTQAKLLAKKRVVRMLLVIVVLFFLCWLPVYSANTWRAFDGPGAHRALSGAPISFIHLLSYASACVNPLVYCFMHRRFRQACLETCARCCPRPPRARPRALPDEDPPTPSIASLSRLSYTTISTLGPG
Chain of Human norepinephrine transporter (P23975 whole entry): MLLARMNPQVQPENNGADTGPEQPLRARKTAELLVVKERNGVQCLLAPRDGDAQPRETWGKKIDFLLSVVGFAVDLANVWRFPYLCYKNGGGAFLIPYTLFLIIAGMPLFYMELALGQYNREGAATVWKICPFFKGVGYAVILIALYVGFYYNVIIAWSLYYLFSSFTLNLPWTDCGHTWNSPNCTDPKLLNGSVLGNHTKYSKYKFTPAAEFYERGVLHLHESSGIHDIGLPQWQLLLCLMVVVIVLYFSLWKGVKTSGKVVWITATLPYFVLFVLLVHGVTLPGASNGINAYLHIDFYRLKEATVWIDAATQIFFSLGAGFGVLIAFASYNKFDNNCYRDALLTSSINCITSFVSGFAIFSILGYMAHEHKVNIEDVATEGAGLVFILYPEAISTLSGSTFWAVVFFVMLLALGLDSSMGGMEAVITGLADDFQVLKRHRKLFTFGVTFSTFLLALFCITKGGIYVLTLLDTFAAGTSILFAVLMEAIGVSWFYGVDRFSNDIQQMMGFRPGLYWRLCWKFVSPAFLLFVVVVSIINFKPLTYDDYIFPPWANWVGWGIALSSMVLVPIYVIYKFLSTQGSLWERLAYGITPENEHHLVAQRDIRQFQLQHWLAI
Chain of Human A2A (P29274 whole entry): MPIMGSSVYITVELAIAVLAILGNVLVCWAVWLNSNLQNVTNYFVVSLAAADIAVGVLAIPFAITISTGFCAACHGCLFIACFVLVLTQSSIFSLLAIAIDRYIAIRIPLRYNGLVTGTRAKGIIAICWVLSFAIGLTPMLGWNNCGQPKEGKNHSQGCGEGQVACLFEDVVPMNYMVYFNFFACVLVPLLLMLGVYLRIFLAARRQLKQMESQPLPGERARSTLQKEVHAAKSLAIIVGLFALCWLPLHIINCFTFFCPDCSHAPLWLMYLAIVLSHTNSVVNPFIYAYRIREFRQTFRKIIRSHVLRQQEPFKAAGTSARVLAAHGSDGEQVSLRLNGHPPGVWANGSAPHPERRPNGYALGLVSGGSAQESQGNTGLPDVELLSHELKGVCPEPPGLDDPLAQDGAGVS
Chain of Rat α7 nAChR (α-BGTX-sensitive) (Q05941 23-502): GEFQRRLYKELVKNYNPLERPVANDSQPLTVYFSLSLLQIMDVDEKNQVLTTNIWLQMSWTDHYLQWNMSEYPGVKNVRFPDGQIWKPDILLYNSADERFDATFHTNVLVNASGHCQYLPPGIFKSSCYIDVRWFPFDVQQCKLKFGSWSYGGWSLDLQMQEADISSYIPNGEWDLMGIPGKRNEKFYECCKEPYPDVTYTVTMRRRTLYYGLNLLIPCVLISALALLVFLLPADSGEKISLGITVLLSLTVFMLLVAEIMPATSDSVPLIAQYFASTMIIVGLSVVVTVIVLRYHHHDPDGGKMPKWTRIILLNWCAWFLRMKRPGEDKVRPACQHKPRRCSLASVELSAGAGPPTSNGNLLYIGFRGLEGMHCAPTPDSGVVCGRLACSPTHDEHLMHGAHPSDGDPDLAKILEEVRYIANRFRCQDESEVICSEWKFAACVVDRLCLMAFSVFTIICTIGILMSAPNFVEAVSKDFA
Chain of Human Y2 (P49146 whole entry): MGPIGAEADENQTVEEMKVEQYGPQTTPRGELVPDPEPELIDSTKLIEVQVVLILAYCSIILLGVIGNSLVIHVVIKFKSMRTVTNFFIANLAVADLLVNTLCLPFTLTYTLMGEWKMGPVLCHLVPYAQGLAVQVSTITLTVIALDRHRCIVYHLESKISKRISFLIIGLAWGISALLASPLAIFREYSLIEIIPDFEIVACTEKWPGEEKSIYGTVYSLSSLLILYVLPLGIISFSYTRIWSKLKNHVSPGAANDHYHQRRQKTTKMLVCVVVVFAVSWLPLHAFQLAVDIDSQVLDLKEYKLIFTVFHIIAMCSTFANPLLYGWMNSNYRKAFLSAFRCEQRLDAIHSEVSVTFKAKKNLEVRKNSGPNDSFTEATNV
Chain of Rat α4β2 nAChR (α-BGTX-insensitive) (P09483 31-630): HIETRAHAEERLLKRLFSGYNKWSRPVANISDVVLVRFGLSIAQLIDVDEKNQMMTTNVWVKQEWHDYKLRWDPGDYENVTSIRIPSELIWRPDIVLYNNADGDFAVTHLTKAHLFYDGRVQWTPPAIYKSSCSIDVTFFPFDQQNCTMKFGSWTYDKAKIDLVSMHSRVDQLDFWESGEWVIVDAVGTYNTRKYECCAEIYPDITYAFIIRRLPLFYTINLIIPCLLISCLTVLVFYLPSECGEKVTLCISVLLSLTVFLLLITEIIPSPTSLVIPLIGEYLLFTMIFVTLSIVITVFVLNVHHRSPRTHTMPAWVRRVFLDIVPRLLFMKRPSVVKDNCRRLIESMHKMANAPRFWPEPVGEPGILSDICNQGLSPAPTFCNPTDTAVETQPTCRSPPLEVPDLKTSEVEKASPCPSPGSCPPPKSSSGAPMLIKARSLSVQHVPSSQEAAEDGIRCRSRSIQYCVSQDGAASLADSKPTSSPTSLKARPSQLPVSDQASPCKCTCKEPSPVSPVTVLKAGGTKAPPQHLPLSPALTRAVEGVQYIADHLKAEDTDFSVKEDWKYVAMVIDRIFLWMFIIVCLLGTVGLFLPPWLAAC
Chain of Rat α4β2 nAChR (α-BGTX-insensitive) (P12390 25-500): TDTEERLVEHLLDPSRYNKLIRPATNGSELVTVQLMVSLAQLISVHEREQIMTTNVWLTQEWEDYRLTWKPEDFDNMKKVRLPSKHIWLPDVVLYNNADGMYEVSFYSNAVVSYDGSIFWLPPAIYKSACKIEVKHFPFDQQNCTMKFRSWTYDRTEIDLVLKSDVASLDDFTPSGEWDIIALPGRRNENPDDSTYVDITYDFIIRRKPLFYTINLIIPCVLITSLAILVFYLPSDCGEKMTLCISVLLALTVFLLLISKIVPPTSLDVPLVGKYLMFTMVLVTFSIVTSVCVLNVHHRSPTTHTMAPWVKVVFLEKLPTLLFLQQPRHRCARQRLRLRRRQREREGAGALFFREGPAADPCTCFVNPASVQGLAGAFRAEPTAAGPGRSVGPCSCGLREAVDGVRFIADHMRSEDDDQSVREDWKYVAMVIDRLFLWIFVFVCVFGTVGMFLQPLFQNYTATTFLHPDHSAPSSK
Chain of Rat CRF1 (P35353 24-415): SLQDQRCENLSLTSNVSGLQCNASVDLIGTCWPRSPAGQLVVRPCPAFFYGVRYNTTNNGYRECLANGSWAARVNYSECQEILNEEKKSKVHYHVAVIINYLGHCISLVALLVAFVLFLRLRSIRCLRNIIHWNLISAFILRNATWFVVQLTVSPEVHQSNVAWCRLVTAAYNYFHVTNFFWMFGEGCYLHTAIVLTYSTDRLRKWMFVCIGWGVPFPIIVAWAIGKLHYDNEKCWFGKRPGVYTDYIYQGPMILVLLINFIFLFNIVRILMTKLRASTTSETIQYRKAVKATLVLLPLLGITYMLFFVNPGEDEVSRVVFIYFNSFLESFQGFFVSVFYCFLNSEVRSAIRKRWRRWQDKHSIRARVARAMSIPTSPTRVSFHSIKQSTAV
Chain of Guinea pig κ kappa (P41144 whole entry): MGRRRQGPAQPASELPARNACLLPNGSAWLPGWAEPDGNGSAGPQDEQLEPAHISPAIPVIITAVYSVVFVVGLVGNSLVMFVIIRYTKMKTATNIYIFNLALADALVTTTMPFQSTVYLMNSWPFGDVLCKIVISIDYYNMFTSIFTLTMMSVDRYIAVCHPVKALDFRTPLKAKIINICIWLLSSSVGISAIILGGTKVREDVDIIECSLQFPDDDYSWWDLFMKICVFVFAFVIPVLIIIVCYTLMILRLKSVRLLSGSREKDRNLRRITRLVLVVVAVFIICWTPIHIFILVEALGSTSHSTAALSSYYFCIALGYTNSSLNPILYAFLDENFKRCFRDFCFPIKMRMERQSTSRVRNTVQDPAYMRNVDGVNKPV

COC(=O)N1CCC(CN2CCC(CNC(=O)c3cccc4[nH]c(C(C)C)nc34)CC2)CC1 [TD-8954, 4-(4-{[(2-isopropyl-1H-benzoimidazole-4-carbonyl)amino]methyl}-piperidin-1-ylmethyl)piperidine-1-carboxylic acid methyl ester] was tested, and the “onset of contractile activity after dosing” value [1] was ≤ 10 min, the “effect on contractility in the antrum, duodenum, and jejunum” value ([1]; TD-8954 0.01 and 0.03 mg/kg, tegaserod 0.1 and 0.3 mg/kg) was “increases in contractility” and the Ki [2] was > 1000 nM. The inhibition at 1 µM [2, 34] was 3%, the Ki [3] was > 1000 nM and the pKi [4] was <6. For the same molecule, the “% Inhibition of specific binding (1 μM)” value ([4]; TD-8954 1 μM) was −5%, the Ki [5] was > 1000 nM and the Ki [6] was > 10000 nM. The Ki [7] was > 10000 nM, the Ki [8] was > 1000 nM and the inhibition at 1 µM [8, 34] was 3%. The Ki [9] was > 1000 nM, the inhibition at 1 µM [9, 34] was -6% and the Ki [10] was > 1000 nM. The inhibition at 1 µM [10, 34] was -5%, the Ki [11] was > 1000 nM and the “% Inhibition of specific binding (1 μM)” value ([11]; Human A2A, [3H]-CGS 21680 6 nM, TD-8954 1 μM) was 16%. For the same molecule, the Ki [12] was > 1000 nM, the Ki [13] was > 1000 nM and the Ki [14] was > 1000 nM. The Ki [15] was > 1000 nM, the Ki [16] was > 100000 nM and the Ki [17] was > 1000 nM. The inhibition at 1 µM [18] was 5%, the Ki [19] was > 1000 nM and the inhibition at 1 µM [19, 34] was -2%. The Ki [20] was > 1000 nM, the inhibition at 1 µM [20, 34] was -1% and the Ki [21] was > 1000 nM. The inhibition at 1 µM [21, 34] was 2%, the “% Inhibition of control (1 μM)” value [22] was 5% and the pKi [23] was <6. For the same molecule, the pKi [24] was <6, the “% Inhibition of specific binding (1 μM)” value ([24]; TD-8954 1 μM) was −1% and the pKi [25] was <6. For the same molecule, the pKi [26] was <6, the “% Inhibition of specific binding (1 μM)” value ([26]; TD-8954 1 μM) was 4% and the Ki [27] was > 1000 nM. The pKi [28] was <6, the “% Inhibition of specific binding (1 μM)” value ([28]; TD-8954 1 μM) was −6% and the pKi [29] was <6. For the same molecule, the “% Inhibition of specific binding (1 μM)” value ([29]; TD-8954 1 μM) was 1%, the “effect on magnitude of inward rat Nav1.2a sodium current” value [30] was “no effect” and the Ki [31] was > 1000 nM. The inhibition at 1 µM [31, 34] was 22%, the pKi [32] was <6 and the Ki [33] was > 1000 nM. For the same molecule, the inhibition at 1 µM [33, 34] was 6%.
